From patent publication US20050250742A1 (Pfizer Inc., priority 2004, published 2005) come the findings set out here.

In the first experiment the target is T1, PIN1-CD (catalytic peptidyl-prolyl isomerase domain, devoid of the PIN1 WW domain) (Homo sapiens, UniProt Q13526).
T1 construct: PIN1 peptide containing the catalytic peptidyl-prolyl isomerase domain but devoid of the PIN1 WW domain
T1 sequence (Q13526 52-163 limits assumed): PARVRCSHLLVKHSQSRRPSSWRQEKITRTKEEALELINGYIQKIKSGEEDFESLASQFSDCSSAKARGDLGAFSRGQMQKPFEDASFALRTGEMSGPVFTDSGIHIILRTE
Put plainly: Pin1 peptidyl-prolyl isomerase assay (protease-coupled, spectrophotometric). It is filed as biochemical. The note with it: catalytic PPIase domain without WW domain; 15° C., pH 7.5, 100 μM Suc-AEPF-pNA. The text has this: PIN1 is a phosphorylation dependent peptidyl-prolyl isomerase. The PIN1 assay is a spectrophotometric assay based on the coupled chymotrypsin or subtilisin catalyzed, cis-trans conformation dependent cleavage of a para-nitroanaline containing peptide substrate. […] Cleavage of the isomerized peptide releases para-nitroanaline, which can be monitored by an increase in absorbance at 390 nm. The PIN1 peptide substrate, succinyl-[…]-proline-phenylalanine-paranitroaniline (Suc-AEPF-pNA) (Bachem), is kept in a predominantly cis conformation with an anhydrous TFE/LiCl solvent mixture.
Upon dilution into an aqueous assay mixture containing PIN1, the peptide substrate undergoes PIN1 catalyzed isomerization to the trans conformation. […] To minimize the spontaneous isomerization of the peptide substrate, reactions are performed at 15° C. A typical reaction contains 25 mM MOPS pH 7.5, 0.5 mM TCEP, 2% DMSO, 5 μl of a 25 mg/ml solution of subtilisin Carlsberg, 50 nM PIN1-PPiase, and 100 μM Suc-AEPF-pNA peptide substrate. Reactions are cooled to 15° C. and initiated with the addition of Suc-AEPF-pNA. The absorbance at 390 nm is monitored continuously until all substrate has been converted to the cleaved product. […] The rate constant k is linearly proportional to the concentration of active enzyme present in the assay mixture once the rate constant for the spontaneous isomerization is subtracted. […] Therefore, during inhibition experiments, the IC50, for non-tight binding inhibitors, is essentially the inhibition constant Ki.
(§1) In Table 1, the Ki data reported under the PIN1—CD heading corresponds to testing with PIN1 peptide containing the catalytic peptidyl-prolyl isomerase domain but devoid of the PIN1 WW domain. Similarly, the dissociation constant (Kd) data under PIN1-CD refers to testing with a peptide containing the catalytic PIN1 domain but devoid of the PIN1 WW domain.
What is called Ki is a measure of affinity in units of concentration, obtained from inhibition or displacement. Higher therefore signals a looser hold on the target. In the case of `O=C(N[C@@H](COP(=O)(O)O)Cc1ccccc1)c1cccc(Cl)c1` [Example 25-8, Phosphoric acid mono-(2-{[1-(3-chloro-phenyl)-methanoyl]-amino}-3-phenyl-propyl) ester], the Ki is < 1 µM.
The same measure, in the same setting: the value for `CC(C)C(=O)N[C@@H](COP(=O)(O)O)Cc1ccccc1` [Example 25-15] was < 10 µM; that for `CC(C)(C)C(=O)N[C@@H](COP(=O)(O)O)Cc1ccccc1` [Example 25-16, Phosphoric acid mono-[(R)-2-(2,2-dimethyl-propanoylamino)-3-phenyl-propyl]ester] was < 1 µM; that for `CCN(CC)c1ccc2cc(C(=O)N[C@@H](COP(=O)(O)O)Cc3cccc(F)c3)c(=O)oc2c1` [Example 25-33, Phosphoric acid mono-[(R)-2-{[1-(diethylamino-oxo-2H-chromen-3-yl)-methanoyl]-amino}-3-(3-fluoro-phenyl)-propyl]ester] was < 1 µM.
On the same count and under the same terms, then `CC(=O)N[C@@H](COP(=O)(O)O)Cc1ccccc1` [Example 25-40, Phosphoric acid mono-(2-acetylamino-3-phenyl-propyl)ester], with < 10 µM; and `O=C(N[C@@H](COP(=O)(O)O)CC1CCCCC1)c1ccc2ccccc2c1` [Example 33, Phosphoric acid mono-{(R)-3-cyclohexyl-2-[(1-naphthalen-2-yl-methanoyl)-amino]-propyl}ester], with < 10 µM.
For the compound `CN(C)c1cccc2c(S(=O)(=O)N[C@@H](COP(=O)(O)O)Cc3cccc(F)c3)cccc12` [Example 42, Phosphoric acid mono-[(R)-2-(5-dimethylamino-naphthalene-1-sulfonylamino)-3-(3-fluoro-phenyl)-propyl]ester], the Ki was < 10 µM.
Take `O=C(N[C@@H](COP(=O)(O)O)Cc1cccc(F)c1)c1ccc2nc[nH]c2c1` [Example 61, Phosphoric acid mono-[(R)-2-[(1-3H-benzoimidazol-5-yl-methanoyl)-amino]-3-(3-fluoro-phenyl)-propyl]ester]: the Ki was < 1 µM.
The same measure, in the same setting: the value for `O=C(N[C@@H](CCP(=O)(O)O)Cc1cccc(F)c1)c1cc2ccccc2s1` [Example 71, ([(R)-3-[(Benzo[b]thiophene-2-carbonyl)-amino]4-(3-fluoro-phenyl)-butyl]-phosphonic acid)] was < 1 µM; that for `O=C(OC(CCCc1ccccc1)CCCc1ccccc1)[C@@H]1CCCCN1C(=O)N[C@@H](COP(=O)(O)O)Cc1cccc(F)c1` [Example 79, (S)-1-[(R)-2-(3-Fluoro-phenyl)-1-phosphonooxymethyl-ethylcarbamoy]-piperidine-2-carboxylic acid 4-phenyl-1-(3-phenyl-propyl)-butyl ester] was < 1 µM.
For the compound `CC(=O)OCOP(=O)(OCOC(C)=O)OC[C@@H](Cc1cccc(F)c1)NC(=O)c1cc2ccccc2s1` [Example 85, Acetic acid acetoxymethoxy-[(R)-2-[(1-benzo[b]thiophen-2-yl-methanoyl)-amino]-3-(3-fluoro-phenyl)-propoxy]-phosphoryloxymethyl ester], the Ki is < 100 µM.

The target of the next experiment is T2, PIN1-CD (catalytic PIN1 domain, devoid of the PIN1 WW domain) (Homo sapiens, UniProt Q13526).
T2 construct: PIN1 peptide containing the catalytic peptidyl-prolyl isomerase domain but devoid of the PIN1 WW domain
T2 sequence (Q13526 52-163 limits assumed): as above
Put plainly: Dissociation constant (Kd) with PIN1 catalytic domain. The following applies: peptide containing the catalytic PIN1 domain. It is filed as binding.
Description: as §1
A word on the Kd: it is a measure of binding affinity in units of concentration. A low value points to a tighter complex. As to `O=C(N[C@@H](COP(=O)(O)O)Cc1ccccc1)c1cc2ccccc2[s+]1[O-]` (stereo in doubt) [25-2′, Phosphoric acid mono-(2-{[1-(1-oxo-benzo[b]thiophen-2-yl)-methanoyl]-amino}-3-phenyl-propyl)ester], the Kd was < 1 µM.
On the same count and under the same terms, then `O=C(Nc1ccccc1Oc1ccccc1)N[C@@H](COP(=O)(O)O)Cc1ccccc1` [Example 23b, Phosphoric acid mono-{2-[3-(2-phenoxy-phenyl)-ureido]-3-phenyl-propyl}ester], with < 1 µM; and `COc1cc(C)cc(NC(=O)N[C@@H](COP(=O)(O)O)Cc2ccccc2)c1` [Example 23c, Phosphoric acid mono-{2-[3-(3-methoxy-5-methyl-phenyl)-ureido]-3-phenyl-propyl}ester], with < 1 µM; and `COc1cc(NC(=O)N[C@@H](COP(=O)(O)O)Cc2ccccc2)cc(OC)c1` [Example 23d, Phosphoric acid mono-{2-[3-(3,5dimethoxy-phenyl)-ureido]-3-phenyl-propyl}ester], with < 1 µM.
Still for that read-out and setting: then `O=C(N[C@@H](COP(=O)(O)O)Cc1ccccc1)c1ccc(Oc2cc(Cl)cc(Cl)c2)o1` [Example 25-4, Phosphoric acid mono-[2-({1-[5-(3,5-dichloro-phenoxy)-furan-2-yl]-methanoyl}-amino)-3-phenyl-propyl]ester], with < 1 µM; and `O=C(N[C@@H](COP(=O)(O)O)Cc1ccccc1)c1ccc(Cl)c(Cl)c1` [Example 25-5, Phosphoric acid mono-(2-{[1-(3,4-dichloro-phenyl)-methanoyl]amino}-3-phenyl-propyl)ester], with < 1 µM.
For the compound `COc1c(C(=O)N[C@@H](COP(=O)(O)O)Cc2ccccc2)csc1Cl` [Example 25-6, Phosphoric acid mono-(2{[1-(5-chloro-4-methoxy-thiophen-3-yl)-methanoyl]-amino}-3-phenyl-propyl)ester], the Kd is < 1 µM.
`Cc1nn(-c2ccccc2)nc1C(=O)N[C@@H](COP(=O)(O)O)Cc1ccccc1` [Example 25-7, Phosphoric acid mono-(2-{[1-(5-methyl-2-phenyl-2H-[1,2,3]triazol-4-yl)-methanoyl]-amino}-3-phenyl-propyl)ester]: the Kd was < 1 µM.
In the case of `O=C(N[C@@H](COP(=O)(O)O)Cc1ccccc1)c1cccc2ccccc12` [Example 25-10, Phosphoric acid mono-{2-[(1-naphthalen-1-yl-methanoyl)-amino]-3-phenyl-propyl}ester], the dissociation constant Kd was < 1 µM.
Same read-out and setting: then `O=C(N[C@@H](COP(=O)(O)O)Cc1ccccc1)c1cnc2ccccc2n1` [Example 25-11, Phosphoric acid mono-{3-phenyl-2-[(1-quinoxalin-2-yl-methanoyl)-amino]-propyl}ester], with < 1 µM; and `O=C(N[C@@H](COP(=O)(O)O)Cc1ccccc1)c1sccc1Cl` [Example 25-12], with < 1 µM; and `O=C(N[C@@H](COP(=O)(O)O)Cc1ccccc1)c1ccccc1O` [Example 25-13, Phosphoric acid mono-(2-{[1-(2-hydroxy-phenyl)-methanoyl]-amino}-3-phenyl-propyl)ester], with < 10 µM.
Still for that read-out and setting: the value for `O=C(N[C@@H](COP(=O)(O)O)Cc1ccccc1)c1ccco1` [Example 25-14, Phosphoric acid mono-{2-[(1-furan-2-yl-methanoyl)-amino]-3-phenyl-propyl}ester] was < 10 µM; that for `O=C(N[C@@H](COP(=O)(O)O)Cc1ccccc1)c1cc2ccccc2[nH]1` [Example 25-18, Phosphoric acid mono-{2-[(1-1H-indol-2-yl-methanoyl)-amino]-3-phenyl-propyl}ester] was < 1 µM.
On the same count and under the same terms, then `O=C(N[C@@H](COP(=O)(O)O)Cc1ccccc1)c1cc2ccccc2o1` [Example 25-19, Phosphoric acid mono-{2-[(1-benzofuran-2-yl-methanoyl)-amino]-3-phenyl-propyl}ester], with < 1 µM.
Regarding `O=C(N[C@@H](COP(=O)(O)O)Cc1ccccc1)c1ccc2cc(O)ccc2c1` [Example 25-20, Phosphoric acid mono-(2-{[1-(6-hydroxy-naphthalen-2-yl)-methanoyl]-amino}-3-phenyl-propyl)ester], the Kd was < 1 µM.
The same measure, in the same setting: then `O=C(N[C@@H](COP(=O)(O)O)Cc1ccccc1)c1ccc2ccccc2c1O` [Example 25-21], with < 1 µM; and `O=C(N[C@@H](COP(=O)(O)O)Cc1ccccc1)c1cc2ccccc2cc1O` [Example 25-22, Phosphoric acid mono-(2-{[1-(3-hydroxy-naphthalen-2-yl)-methanoyl]-amino}-3-phenyl-propyl)ester], with < 1 µM.
Same read-out and setting: the value for `O=C(N[C@@H](COP(=O)(O)O)Cc1ccccc1)c1ccc2ccccc2c1Br` [Example 25-24, Phosphoric acid mono-(2-{[1-(1-bromo-naphthalen-2-yl)-methanoyl]amino}-3-phenyl-propyl)ester] was < 1 µM; that for `COc1ccc2cc(C(=O)N[C@@H](COP(=O)(O)O)Cc3ccccc3)ccc2c1` [Example 25-25, Phosphoric acid mono-(2-{[1-(6-methoxy-naphthalen-2-yl)-methanoyl]-amino}-3-phenyl-propyl)ester] was < 1 µM; that for `CN(C(=O)c1ccc2ccccc2c1)C(COP(=O)(O)O)Cc1ccccc1` (stereo not drawn) [Example 58, Phosphoric acid mono-{[methyl-(1-naphthalen-2-yl-methanoyl)-amino]-phenyl-propyl}ester] was < 10 µM.
Still for that read-out and setting: the value for `NS(=O)(=O)OC[C@@H](Cc1ccccc1)NC(=O)c1ccc2ccccc2c1` [Example 72, Sulfamic acid 2-[(1-naphthalen-2-yl-methanoyl)-amino]-3-phenyl-propyl ester] was < 100 µM.
